This note sets out measurements from patent publication US10874669B2 (WAYNE STATE UNIVERSITY, priority 2018, dated 2020).

One experiment concerns the target cloned D3 receptors (Rattus norvegicus (Rat), UniProt P19020). Description: [3H]spiperone displacement, cloned D3 receptors in HEK cells. The format is binding. As to conditions: means±SEM for 3 experiments. The text has this: The following table provides inhibition constants for displacing [3H]spiperone binding to the cloned D2L and D3 receptors expressed in HEK cells. Results are means±SEM for 3 experiments each performed in triplicate. NR=Not repeated.

For another experiment, the target named is cloned rat D2L receptors (Rattus norvegicus (Rat), UniProt P61169). Kind of experiment: [3H]spiroperidol competition binding, rat D2L receptors in HEK-293 cells. As to conditions: values of Table 3; for Ki: rat D2 in HEK-293 cells; for D2/D3: ratio of Ki values. The source says: (§1) All these procedures were described by us previously.
In the next experiment the target is cloned rat D3 receptors (Rattus norvegicus (Rat), UniProt P19020). Description: [3H]spiroperidol competition binding, rat D3 receptors in HEK-293 cells. Conditions: rat D3 in HEK-293 cells; values of Table 3. The procedure: A well established radioligand competition assay was carried out to evaluate binding affinity of the test compounds and were compared with that of the reference agent (S)-5-OH-DPAT (Table 3). Binding affinity to rat DA D2 and D3 receptors expressed in HEK-293 cells was determined as described by us previously. […] This indicated highest tolerance of the 4-substituted carbazole derivative for interaction with the D2 and D3 receptors.
as §1

Chain of cloned D3 receptors (P19020 whole entry): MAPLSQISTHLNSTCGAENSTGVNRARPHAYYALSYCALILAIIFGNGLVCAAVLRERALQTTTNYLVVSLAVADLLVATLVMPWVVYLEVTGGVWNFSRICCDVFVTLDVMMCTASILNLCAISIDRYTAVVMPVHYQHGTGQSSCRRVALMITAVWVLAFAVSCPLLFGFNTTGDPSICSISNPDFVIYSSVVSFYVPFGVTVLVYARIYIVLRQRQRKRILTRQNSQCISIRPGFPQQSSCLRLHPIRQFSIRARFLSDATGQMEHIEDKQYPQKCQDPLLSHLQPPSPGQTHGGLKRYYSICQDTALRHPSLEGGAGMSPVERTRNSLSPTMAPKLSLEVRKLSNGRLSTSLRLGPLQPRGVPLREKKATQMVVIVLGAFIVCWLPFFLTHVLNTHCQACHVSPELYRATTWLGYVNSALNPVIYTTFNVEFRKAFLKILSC
Chain of cloned rat D3 receptors (P19020 whole entry): as above
Chain of cloned rat D2L receptors (P61169 whole entry): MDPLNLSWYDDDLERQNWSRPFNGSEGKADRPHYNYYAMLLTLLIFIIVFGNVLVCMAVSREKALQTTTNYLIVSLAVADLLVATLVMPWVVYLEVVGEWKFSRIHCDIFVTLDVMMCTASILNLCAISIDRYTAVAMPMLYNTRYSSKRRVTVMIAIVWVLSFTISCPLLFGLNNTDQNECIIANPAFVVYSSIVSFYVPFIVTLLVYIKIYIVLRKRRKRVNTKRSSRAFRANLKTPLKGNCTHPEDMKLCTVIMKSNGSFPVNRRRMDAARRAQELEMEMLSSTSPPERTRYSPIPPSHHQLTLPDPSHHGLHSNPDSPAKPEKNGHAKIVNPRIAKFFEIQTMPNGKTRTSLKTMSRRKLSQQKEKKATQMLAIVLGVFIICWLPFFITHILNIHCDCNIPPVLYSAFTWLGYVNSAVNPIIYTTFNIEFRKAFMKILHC

On cloned D3 receptors, `CCCN(CCCCCc1cc(O)ccc1O)[C@@H]1CCc2nc(N)sc2C1` [(−)-36, (R)-2-(5-((2-Amino-4,5,6,7-tetrahydrobenzo[d]thiazol-6-yl)(propyl)amino)pentyl)benzene-1,4-diol] had a Ki of 0.78 ± 0.2 nM.

`CCCN(CCN1CCN(c2ccc3c(c2)[nH]c2ccccc23)CC1)[C@H]1CCc2nc(N)sc2C1` [(−)-91a, (S)—N^6-(2-(4-(9H-carbazol-2-yl)piperazin-1-yl)ethyl)-N^6-propyl-4,5,6,7-tetrahydrobenzo[d]thiazole-2,6-diamine]: the values for the Ki at cloned rat D2L receptors and on cloned rat D3 receptors were 504 nM and 3.94 nM, respectively. Besides, the D2/D3 at cloned rat D2L receptors was found to be 128.

Regarding `CCCN(CCN1CCN(c2ccc3[nH]c4ccccc4c3c2)CC1)[C@H]1CCc2c(O)cccc2C1` [(−)-95b, (S)-6-((2-(4-(9H-carbazol-3-yl)piperazin-1-yl)ethyl)(propyl)amino)-5,6,7,8-tetra-hydronaphthalen-1-ol], the Ki on cloned rat D2L receptors worked out at 61.6 nM; at cloned rat D3 receptors, 1.94 nM.

Turning to `CCCN(CCN1CCN(CCn2c3ccccc3c3ccccc32)CC1)[C@H]1CCc2nc(N)sc2C1` [(−)-101, (S)—N^6-(2-(4-(2-(9H-carbazol-9-yl)ethyl)piperazin-1-yl)ethyl)-N^6-propyl-4,5,6,7-tetrahydrobenzo[d]thiazole-2,6-diamine], the inhibition constant (Ki) on cloned rat D2L receptors came to 82.6 nM; on cloned rat D3 receptors, 7.18 nM. Also, at cloned rat D2L receptors, the D2/D3 is 12.

At cloned D3 receptors, `CCCN(CCCCCc1cc(O)ccc1O)C1CCc2nc(N)sc2C1` (centres unmarked) [Compound 35, 2-(5-((2-Amino-4,5,6,7-tetrahydrobenzo[d]thiazol-6-yl)(propyl)amino)pentyl)benzene-1,4-diol] came in with a Ki of 1.01 ± 0.28 nM.

On cloned D3 receptors, `CCCN(CCCC1(O)C=CC(O)=CC1)C1CCc2nc(N)sc2C1` (centres unmarked) [Compound 54, 4-(3-((2-Amino-4,5,6,7-tetrahydrobenzo[d]thiazol-6-yl)(propyl)amino)propyl)-benzene-1,4-diol] registered a Ki of 11.9 ± 1.9 nM.

With `CCCN(CCN1CCN(c2ccc3c(c2)[nH]c2ccccc23)CC1)C1CCc2nc(N)sc2C1` (centres unmarked) [Compound 90a, N^6-(2-(4-(9H-carbazol-2-yl)piperazin-1-yl)ethyl)-N^6-propyl-4,5,6,7-tetrahydrobenzo-[d]thiazole-2,6-diamine], on cloned rat D2L receptors, affinity was put at a Ki of 902 nM and the D2/D3 was determined as 146. The same compound registered a Ki on cloned rat D3 receptors of 6.18 nM.

In the case of `CCCN(CCN1CCN(c2ccc3[nH]c4ccccc4c3c2)CC1)C1CCc2nc(N)sc2C1` (centres unmarked) [Compound 90b, N^6-(2-(4-(9H-carbazol-3-yl)piperazin-1-yl)ethyl)-N^6-propyl-4,5,6,7-tetrahydrobenzo[d]thiazole-2,6-diamine], the Ki on cloned rat D2L receptors was found to be 612 nM; on cloned rat D3 receptors, 3.12 nM. For the same compound, the D2/D3 at cloned rat D2L receptors is 196.

Take `CCCN(CCN1CCN(c2cccc3[nH]c4ccccc4c23)CC1)C1CCc2nc(N)sc2C1` (centres unmarked) [Compound 90c, N^6-(2-(4-(9H-carbazol-4-yl)piperazin-1-yl)ethyl)-N^6-propyl-4,5,6,7-tetrahydrobenzo[d]thiazole-2,6-diamine]: the values for the Ki on cloned rat D2L receptors and on cloned rat D3 receptors were 76.9 nM and 7.8 nM, respectively. Besides, at cloned rat D2L receptors, the D2/D3 was found to be 9.86.

In the case of `CCCN(CCN1CCN(CCn2c3ccccc3c3ccccc32)CC1)C1CCc2nc(N)sc2C1` (centres unmarked) [Compound 100, N^6-(2-(4-(2-(9H-carbazol-9-yl)ethyl)piperazin-1-yl)ethyl)-N^6-propyl-4,5,6,7-tetrahydrobenzo[d]thiazole-2,6-diamine], at cloned rat D2L receptors, the Ki was 435 nM and the D2/D3 is recorded as 65.9. This compound also returned a Ki at cloned rat D3 receptors of 6.6 nM.

For orientation: Ki means the dissociation constant of the complex between target and ligand, obtained from inhibition or displacement. High values mean lower affinity, low ones higher affinity.
